# In US20130225611A1, “Compositions and Methods for Reducing Cancer Cell Proliferation and Modulating Importin-Beta Function” (THE REGENTS OF THE UNIVERSITY OF CALIFORNIA, priority 2011, published 2013):
# Experiments:
# [1] = test system: HeLa cells; experiment: HeLa cell viability assay (CellTiter-Glo); type: cell-based; details: Homo sapiens, treatment over a 24-hour period
# Method: For HeLa cell viability assays to obtain an IC50, 10,000 actively growing HeLa cells per well were transferred to opaque white 96 well tissue culture plates at a final volume of 100 μl per well in DMEM plus 4% fetal bovine serum and 1% penicillin/streptomycin. Cells were allowed to grow at 37° C. for 24 hours. Individual wells were then treated for 12 hours with one of the following conditions: 1% DMSO, 5, 10, 20, 30, 40, 50, 60, 75, 100 μM IPZ. Following this treatment, the media was replaced and cells were treated for another 12 hours under the same conditions. The plates were then allowed to equilibrate to room temperature for 30 min, after which 100 μl of room temperature CellTiter-Glo reagent from the Promega CellTiter-Glo Luminescent Cell Viability Assay kit was added to each well. Plates were shaken for 2 min, incubated at room temperature for 10 min, then read on a luminometer. The average background signal for the plate was subtracted from the value of each individual well, and the resulting values were normalized to the signal level of the DMSO containing well.
# [2] = target: T1, RanGTP/importin-β interaction (Homo sapiens, UniProt Q14974); experiment: RanGTP protection assay (RanGAP-stimulated hydrolysis); type: biochemical; details: 50 μM importazole
# T1 construct: made in house; host or cells: E. coli: BL21 (importin-β), SG13 (Ran)
# Method: For RanGTP protection assays, all steps were performed in buffer containing 50 mM HEPES pH 7.6 with 2.5 mM MgCl2. Loading the Ran with GTP: 40 nM Biotin labeled RCC1 was bound to streptavidin agarose resin for 30 min rotating at 4° C. The Biotin labeled RCC1 was a gift of D. Halpin. The beads were washed with fresh buffer to remove any free RCC1, and 16 μM nucleotide free Ran and 51 μM GTPγP^32 were added and Ran was allowed to load for 30 min at room temperature. The beads were then removed using a spin column, and the remaining supernatant was filtered through a Sephadex G-50 column to remove free GTPγP^32. The loaded Ran was then diluted to 1.6 μM for further use. Performing the assay: All reactions were performed in a final volume of 200 μL at and in buffer containing 50 mM HEPES pH 7.6 with 2.5 mM MgCl2. Importin-β was pre-incubated with either 0.5% DMSO or 50 μM importazole in 0.5% DMSO and 100 nM RanGTPγP^32 at room temperature. 1 μM RanGAP was added to start each reaction, and the reaction was allowed to proceed for 5 min before the reaction was stopped using 1 ml of a solution containing 7% charcoal, 10% ethanol, 0.1 M HCl, and 10 mM KH2PO4. The resulting solution was spun at 10,000 RPM for 2 min in a tabletop centrifuge to pellet the charcoal, and the resulting supernatant was removed and counted for three min per sample in a liquid scintillation counter.
# [3] = test system: bovine tubulin; experiment: pure tubulin polymerization and pelleting assay; type: biochemical; details: 25 μM bovine tubulin, 5% DMSO, pelleting, SDS PAGE
# Method: Xenopus laevis egg extracts were prepared as described by Hannak et al. (2006) Nat. Protoc. 1:2305-2314. For in vitro spindle assembly, Xenopus laevis sperm DNA was added to egg extracts supplemented with rhodamine-labeled tubulin. Asters were formed by addition of 5% DMSO. DNA was stained with Hoechst dye. The formation of microtubule-based structures was assessed using epifluorescence microscopy after a 30-minute room temperature incubation. In vitro microtubule polymerization and pelleting assays were performed by incubating 25 μM bovine tubulin, 1 mM GTP, and 5% DMSO in BRB80 buffer (80 mM PIPES, 1 mM MgCl2, 1 mM EGTA, pH 6.8) at 37° C. for 30 minutes. Polymerized microtubules were pelleted through a sucrose cushion, resuspended, and analyzed by SDS PAGE.
# [4] = target: T2, CRM1 (Homo sapiens, UniProt O14980); experiment: fluorescent thermal shift assay (Sypro Orange), CRM1; type: binding; details: 2 μM protein, 50 μM importazole
# T2 construct: made in house; host or cells: SG13 cells (E. coli)
# Method: Experiments were performed using Applied Biosystems StepOnePlus™ Real-Time polymerase chain reaction (RT-PCR) System. Protein stocks were diluted in PBS and added 70% v/v to a Microamp® Fast 96-well Reaction Plate and maintained on ice. Compounds (importazole and control compound 3016) were then added at 30% v/v in 3% DMSO. Freshly prepared 100× water based-dilution of Sypro® Orange Protein Gel Stain was then added at 1% v/v to reach a final reaction volume of 20 μl. Samples were mixed by gentle pipetting. After sealing the plates with Microamp™ Optical Adhesive Film, the plate was subjected to a heating cycle composed of a 10 sec prewarming step at 25° C. and a gradient between 25° C. and 95° C. with a 0.3° C. ramp. Data was analyzed using the StepOnePlus™ Software v2.1.
# [5] = test system: CRM1-mediated export of NFAT-GFP; experiment: NFAT-GFP nuclear export after ionomycin washout in HEK 293 cells; type: cell-based, human; details: HEK 293, importazole 40 μM, leptomycin B 10 ng/ml, 1 hour after ionomycin washout
# Method: For all import and export experiments, HEK 293 cells stably expressing NFAT-GFP were grown on glass coverslips to approximately 50% confluency prior to drug treatment. In all cases, importazole was used at 40 μM and leptomycin B was used at 10 ng/ml. For controls, DMSO was used at a concentration of 0.4%. Ionomycin was added at 1.25 μM. Importazole and leptomycin B treatments were all for 1 hour. In all experiments cells were fixed with 4% formaldehyde prior to fluorescence microscopy. DNA was visualized with 1 μg/ml Hoechst dye.
# [6] = test system: nuclear import mediated by transportin; experiment: nuclear import of M9-YFP in permeabilized HeLa cells; type: cell-based, human; details: permeabilized HeLa cells plus Xenopus egg extract
# [7] = solubility in water; type: physicochemical
# [8] = test system: HeLa cells; experiment: mitotic spindle defects in HeLa cells (tubulin and DNA staining); type: cell-based, human; details: HeLa cells treated for one hour
# Method: To examine the consequences of importazole on mitosis, HeLa cells treated for one hour were fixed and stained for tubulin and chromosomes. […] Spindle positioning was not previously attributed to the Ran pathway and this phenotype may be a consequence of astral microtubule disruption by importazole.
# Cells were fixed in 4% formaldehyde and 0.1% glutaraldehyde in PHEM (60 mM PIPES, 25 mM HEPES, 10 mM EGTA, 2 mM MgSO4) at 37° C. for 15 minutes followed by permeabilization with 0.1% triton X-100 for 2 minutes at room temperature. Cells were then washed and blocked (PHEM+5% FBS+0.2% saponin) and stained by standard techniques using the E7-A anti β tubulin antibody (Developmental Studies Hybridoma Bank) diluted 1:1000 and Hoechst dye.
# T2 sequence (O14980 whole entry, species assumed): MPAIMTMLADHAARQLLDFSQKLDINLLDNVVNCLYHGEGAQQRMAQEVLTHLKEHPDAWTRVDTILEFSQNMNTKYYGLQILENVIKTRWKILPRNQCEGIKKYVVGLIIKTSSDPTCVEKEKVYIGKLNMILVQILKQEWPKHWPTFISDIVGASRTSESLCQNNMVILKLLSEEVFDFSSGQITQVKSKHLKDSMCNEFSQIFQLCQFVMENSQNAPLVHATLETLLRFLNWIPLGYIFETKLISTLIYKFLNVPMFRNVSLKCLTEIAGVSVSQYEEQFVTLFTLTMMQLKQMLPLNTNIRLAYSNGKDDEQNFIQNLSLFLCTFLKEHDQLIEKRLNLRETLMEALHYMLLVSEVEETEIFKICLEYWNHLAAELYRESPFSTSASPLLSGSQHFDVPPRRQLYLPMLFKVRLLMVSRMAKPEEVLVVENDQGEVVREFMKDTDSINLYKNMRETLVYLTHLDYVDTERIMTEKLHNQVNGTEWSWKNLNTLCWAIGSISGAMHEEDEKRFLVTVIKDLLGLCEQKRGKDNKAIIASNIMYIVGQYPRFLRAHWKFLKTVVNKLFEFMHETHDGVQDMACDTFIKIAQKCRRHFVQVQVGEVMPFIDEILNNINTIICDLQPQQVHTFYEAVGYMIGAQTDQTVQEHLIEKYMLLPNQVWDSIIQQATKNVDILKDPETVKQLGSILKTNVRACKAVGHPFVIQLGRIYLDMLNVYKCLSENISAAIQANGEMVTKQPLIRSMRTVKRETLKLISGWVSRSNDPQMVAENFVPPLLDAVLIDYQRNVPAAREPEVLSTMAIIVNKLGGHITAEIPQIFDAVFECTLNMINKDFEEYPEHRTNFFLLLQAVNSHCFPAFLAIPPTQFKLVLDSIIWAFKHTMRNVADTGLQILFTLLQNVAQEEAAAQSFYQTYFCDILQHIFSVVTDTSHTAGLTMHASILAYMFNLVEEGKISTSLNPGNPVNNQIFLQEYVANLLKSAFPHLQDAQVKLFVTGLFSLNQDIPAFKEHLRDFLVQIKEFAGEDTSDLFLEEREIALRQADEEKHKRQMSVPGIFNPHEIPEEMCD
compound,measurement,setting,value
"CC(Nc1nc(N2CCCC2)nc2ccccc12)c1ccccc1 (stereo not drawn) [importazole, (1-phenyl-ethyl)-(2-pyrrolidin-1-yl-quinazolin-4-yl)-amine]",IC50,[1],~22.5 µM
same,effect on ability of importin-β to protect RanGTP from RanGAP-stimulated hydrolysis,[2],do not indicate that importazole disrupts the RanGTP/importin-β interaction
same,polymerization of pure microtubules,[3],does not Affect Pure Microtubules
same,effect on melting curve of CRM1,[4],did not significantly affect the melting curves
same,CRM1-mediated export of NFAT-GFP,[5],occurred efficiently
same,transportin-mediated nuclear import (M9-YFP),[6],did not block nuclear import
same,solubility,[7],~100 µM
same,cells displaying off-center spindles,[8],more than 40%
same,"defects in spindle assembly, chromosome alignment and spindle size",[8]; 0 to 40 μM,dose-dependent defects
